Values of other authors in patent US20230301938A1 (priority 2022, published 2023).
Like-named read-outs stand apart in the source and are kept apart here.

Legend:
[1] = system: human umbilical vein VECs (HUVECs)
[2] = system: endothelium of atherosclerotic plaque; conditions: apoE(-/-) mice, injection
[3] = system: sepsis; conditions: for concentration of IL-1α: controls 1187.0 ± 278.64
[4] = system: lipopolysaccharide-induced inflammatory reactions
[5] = system: myocardial ischemia; conditions: 10 mg/kg intravenously then 10 mg/kg/h
[6] = system: lipopolysaccharide-activated macrophages
[7] = system: macrophage foam cells
[8] = system: ulcerative colitis (UC)
[9] = system: Nrf2 (-/-) primary peritoneal macrophages
[10] = system: LPS-induced ARDS
[11] = system: Nrf2 (+/+) primary peritoneal macrophages
[12] = system: LPS-challenged macrophages; conditions: pre-incubated 6 h, 0 to 50 µM, then LPS 24 h
[13] = 50 and 100 mg/kg/day, vs MD group

## trans-3,5-dimethoxy-4-hydroxystilbene [pterostilbene]
[1]; HUVECs, oxLDL 200 µg/ml
  oxLDL-induced cell shrinkage, chromatin condensation, nuclear fragmentation, and cell apoptosis: protected against such injuries
[1]; in vitro and in vivo
  expression of lectin-like oxLDL receptor-1 (LOX-1): inhibited
[2]
  number of TUNEL-positive cells in the endothelium of atherosclerotic plaque: strongly decreased

## CC1=CC(=O)C(C(C)C)=CC1=O [thymoquinone]
[3]; 0.75 mg/kg dose
  concentration of IL-1α: 310.8 ± 70.93 pg/mL
[3]; 0.75 mg/kg, controls 5505.2 ± 333.96
  IL-10 levels: 2885.0 ± 553.98 pg/mL
[3]; 1 mg/kg group
  concentration of IL-1α: 428.3 ± 71.32 pg/mL
[3]; P=0.0851
  levels of IL-2: relatively lower levels
[3]; P=0.1817
  levels of TNF-α: relatively lower levels
[3]; mice, sepsis
  reduction of mortality: 80-90%
  renal and hepatic biomarker profiles: improved
[4]
  lipopolysaccharide-induced inflammatory reactions: suppressed effectively
[4]; marker of inflammation
  concentration of nitric oxide: reduced significantly

## O=C(O[C@@H]1Cc2c(O)cc(O)cc2O[C@@H]1c1cc(O)c(O)c(O)c1)c1cc(O)c(O)c(O)c1 [EGCG]
[5]
  myeloperoxidase activity: reduced
  myocardial damage: reduced
  plasma IL-6 levels: decreased
  plasma creatine phosphokinase levels: decreased
[6]; cotreated with LPS
  NO production: Inhibition
[6]; electrophoretic mobility shift assay
  activation of nuclear factor-kappaB: blocked
[7]
  TNF-α-induced nuclear factor-κB (NF-κB) activity: inhibition
[7]; pretreatment
  TNF-α-induced downregulation of ABCA1 and decrease in cholesterol efflux to apoA1: attenuated
[8]; [13]
  disease activity index (DAI): decreased
  spleen index (SI): decreased
[8]; mouse, in vivo
  HIF-1α protein expression in the colon: decreasing
  STAT3 protein expression in the colon: decreasing
  plasma levels of IL-10: increasing
  plasma levels of TGF-β1: increasing
[8]; plasma
  release of IL-6: reduce
  release of IL-17: reduce

## C[S+]([O-])CCCCN=C=S (stereo not drawn) [sulforaphane, 1-isothiocyanato-4-(methylsulfinyl)-butane]
[9]
  anti-inflammatory effect: attenuated
[10]; 50 mg/kg
  inducible nitric oxide synthase (iNOS) activity: significantly inhibited
  nuclear factor-κB protein expression: significantly decreased
  prostaglandin E2 (PGE2) production: significantly inhibited
[10]; 50 mg/kg, ELISA
  serum levels of interleukin-6 (IL-6): significantly decreased
  serum levels of tumor necrosis factor-α (TNF-α): significantly decreased
[10]; 50 mg/kg, LPS 5 mg/kg
  lactate dehydrogenase (LDH) activity: significantly decreased
  wet-to-dry ratio of the lungs: significantly decreased
[10]; pre-treatment
  Nrf2/antioxidant response element (ARE) pathway: activated
[10]; western blot
  cyclooxygenase-2 (COX-2) protein expression: significantly inhibited
  matrix metalloproteinase-9 (MMP-9) protein expression: significantly inhibited
[11]; LPS-stimulated
  HO-1 expression: significantly augmented
[11]; pretreatment
  LPS-stimulated mRNA expression, protein expression and production of TNF-alpha, IL-1beta, COX-2 and iNOS: potently inhibited
[12]
  expression of NO and cytokines: able to prevent
